Values of other authors as cited in US20110294894A1, “Pharmaceutical Composition for the Treatment of Solar Urticaria” (priority 2010, published 2011).

Tested on: severe antihistamine-resistant solar urticaria
Conditions: single case, Güzelbey et al., 2008

## omalizumab
  effectiveness in solar urticaria: effective
